Key:
Type in all cases: in vivo
Settings in all cases: 250 g/Ha, evaluated after 13 days
[1] = test system: Echinochloa crus-galli (ECHCG); test: Post-emergence herbicidal glasshouse test
Text: (§1) Compounds are applied at 250 g/h. […] NT=not tested.

Setaria faberi (SETFA) [2] = test: Post-emergence herbicidal glasshouse test
Text: as §1

Lolium perenne (LOLPE) [3] = test: Post-emergence herbicidal glasshouse test
Text: as §1

Avena fatua (AVEFA) [4] = test: Post-emergence herbicidal glasshouse test
Text: as §1

[5] = test system: Alopecurus myosuroides (ALOMY); test: Post-emergence herbicidal glasshouse test
Text: as §1

[6] = test system: Echinochloa crus-galli (ECHCG); test: Pre-emergence herbicidal glasshouse test
Text: as §1

Setaria faberi (SETFA) [7] = test: Pre-emergence herbicidal glasshouse test
Text: as §1

Lolium perenne (LOLPE) [8] = test: Pre-emergence herbicidal glasshouse test
Text: as §1

Avena fatua (AVEFA) [9] = test: Pre-emergence herbicidal glasshouse test
Text: as §1

[10] = test system: Alopecurus myosuroides (ALOMY); test: Pre-emergence herbicidal glasshouse test
Text: as §1

Compound | percentage damage caused to the plant, ECHCG [1] | percentage damage caused to the plant, SETFA (Setaria faberi (SETFA) [2]) | percentage damage caused to the plant, LOLPE (Lolium perenne (LOLPE) [3]) | percentage damage caused to the plant, AVEFA (Avena fatua (AVEFA) [4]) | percentage damage caused to the plant, ALOMY [5] | percentage damage caused to the plant, ECHCG [6] | percentage damage caused to the plant, SETFA (Setaria faberi (SETFA) [7]) | percentage damage caused to the plant, LOLPE (Lolium perenne (LOLPE) [8]) | percentage damage caused to the plant, AVEFA (Avena fatua (AVEFA) [9]) | percentage damage caused to the plant, ALOMY [10]
CC#Cc1cc(C)c(C2C(=O)CC3(CCN(S(=N)(=O)CC)CC3)CC2=O)c(C)c1 (stereo not drawn) [Compound A2] | 5 (5=80-100%) | 5 (5=80-100%) | 5 (5=80-100%) | 5 (5=80-100%) | 5 (5=80-100%) | 5 (5=80-100%) | 5 (5=80-100%) | 5 (5=80-100%) | 5 (5=80-100%) | 5 (5=80-100%)
CC#Cc1cc(C)c(C2C(=O)CC3(CCN(S(=O)(=O)N(C)C)CC3)CC2=O)c(C)c1 [Compound A4] | 5 (5=80-100%) | 5 (5=80-100%) | 5 (5=80-100%) | 5 (5=80-100%) | 5 (5=80-100%) | 5 (5=80-100%) | 5 (5=80-100%) | 5 (5=80-100%) | 5 (5=80-100%) | 5 (5=80-100%)
CC#Cc1cc(C)c(C2C(=O)CC3(CCN(S(=N)(=O)c4ccccn4)CC3)CC2=O)c(C)c1 (stereo not drawn) [Compound A5] | 5 (5=80-100%) | 5 (5=80-100%) | 5 (5=80-100%) | 5 (5=80-100%) |  | 5 (5=80-100%) | 5 (5=80-100%) | 5 (5=80-100%) | 5 (5=80-100%) | 
CC#Cc1cc(C)c(C2C(=O)CC3(CCN(S(=O)(=O)NCC)CC3)CC2=O)c(C)c1 [Compound A6] | 5 (5=80-100%) | 5 (5=80-100%) | 5 (5=80-100%) | 5 (5=80-100%) | 5 (5=80-100%) | 5 (5=80-100%) | 5 (5=80-100%) | 4 (4=60-79%) | 4 (4=60-79%) | 3 (3=40-59%)
CC#Cc1cc(C)c(C2C(=O)CC3(CCN(S(=O)(=O)N4CCOCC4)CC3)CC2=O)c(C)c1 [Compound A7] | 5 (5=80-100%) | 5 (5=80-100%) | 5 (5=80-100%) | 5 (5=80-100%) | 5 (5=80-100%) | 5 (5=80-100%) | 5 (5=80-100%) | 5 (5=80-100%) | 1 (1=0-19%) | 2 (2=20-39%)
CC#Cc1cc(C)c(C2C(=O)CC3(CCN(S(=O)(=O)N(C)CC#N)CC3)CC2=O)c(C)c1 [Compound A11] | 5 (5=80-100%) | 5 (5=80-100%) | 5 (5=80-100%) | 5 (5=80-100%) | 5 (5=80-100%) | 5 (5=80-100%) | 5 (5=80-100%) | 4 (4=60-79%) | 2 (2=20-39%) | 1 (1=0-19%)
CC#Cc1cc(C)c(C2C(=O)CC3(CCN(S(=O)(=O)N4CCS(=O)(=O)CC4)CC3)CC2=O)c(C)c1 [Compound A12] | 5 (5=80-100%) | 5 (5=80-100%) | 4 (4=60-79%) | 5 (5=80-100%) | 5 (5=80-100%) | 5 (5=80-100%) | 5 (5=80-100%) | 4 (4=60-79%) | 5 (5=80-100%) | 5 (5=80-100%)
CC#Cc1cc(C)c(C2C(=O)CC3(CCN(S(=O)(=O)NC(C)=O)CC3)CC2=O)c(C)c1 [Compound A13] | 5 (5=80-100%) | 5 (5=80-100%) | 5 (5=80-100%) | 5 (5=80-100%) | 5 (5=80-100%) | 5 (5=80-100%) | 5 (5=80-100%) | 5 (5=80-100%) | 5 (5=80-100%) | 5 (5=80-100%)
CC#Cc1cc(C)c(C2=C(OC(=O)OC)CC3(CCN(S(C)(=N)=O)CC3)CC2=O)c(C)c1 (stereo not drawn) [Compound P3, [9-(2,6-dimethyl-4-prop-1-ynyl-phenyl)-3-(methylsulfonimidoyl)-10-oxo-3-azaspiro[5.5]undec-8-en-8-yl] methyl carbonate] |  | 5 (5=80-100%) | 5 (5=80-100%) | 5 (5=80-100%) | 5 (5=80-100%) | 5 (5=80-100%) | 5 (5=80-100%) | 5 (5=80-100%) | 5 (5=80-100%) | 5 (5=80-100%)

From patent US12281081B2, “Herbicidal compounds” (SYNGENTA CROP PROTECTION AG, priority 2019, dated 2025)
